According to patent US20260217701A1, “SELECTIVE BET INHIBITORS AND USES THEREOF” (Tay Therapeutics Limited, priority 2022, published 2026):
“And” between values parts separate entries of the source, which are not always exact repeats. Identical values can stand only once.

System: collagen-induced arthritis
Experiment: Collagen-induced arthritis (CIA) model: clinical scores and paw volume; on Average animal paw volume percent change (%): reference of the scale not given here; on animal paw volume percent change (%): reference of the scale not given here
Type: in vivo, Lewis rats
Settings: for Average animal paw volume percent change (%) / Animal paw volume percent change (%) / Average animal paw volume: group 4 CIA + GSK620 (10 mg/kg); for Animal paw volume percent change (%) / clinical score left forelimb / clinical score left hind limb / clinical score right forelimb / clinical score right hind limb / clinical score, score (all limbs) / Animal paw volume: individual animals; for Animal paw volume: Group 4 (CIA + GSK620)
[1] = group 4 CIA + GSK620, 2nd section of table, 1st day (between Day 12 and Day 18)
[2] = group 4 CIA + GSK620, 2nd section of table, 2nd day (between Day 12 and Day 18)
[3] = group 4 CIA + GSK620, 2nd section of table, 3rd day (between Day 12 and Day 18)

In the case of CNC(=O)c1cc(C(=O)NC2CC2)cn(Cc2ccccc2)c1=O [GSK620], the “Percent Inhibition in clinical score (Mean ± SD)” value (CIA rats, 10 mg/kg) is reported as 37 ± 14%, the “Percent Inhibition in paw volume (Mean ± SD)” value (CIA rats, 10 mg/kg) is reported as 28 ± 21% and the “Average animal paw volume percent change (%)” value (Day 0, L paw) is reported as 0.00%. For the same compound, the “Animal paw volume percent change (%)” value (Day 0, L paw) was 0.00%, the “Average animal paw volume percent change (%)” value (Day 0, R paw) was 0.00% and the “Animal paw volume percent change (%)” value (Day 0, R paw) was 0.00%. For the same compound, the “Average overall clinical score” value (Day 0, CIA) was 0, the “clinical score left forelimb” value (Day 0, CIA) was 0 and the “clinical score left hind limb” value (Day 0, CIA) was 0. The “clinical score right forelimb” value (Day 0, CIA) was 0, the “clinical score right hind limb” value (Day 0, CIA) was 0 and the “clinical score, score (all limbs)” value (Day 0, CIA) was 0. The “Average animal paw volume” value (Day 6, L paw) was 1.34 mL, the “Animal paw volume percent change (%)” value (Day 6, L paw, 10 mg/kg) was −0.39% and −0.73% and 0.36% and 0.00% (2×) and −0.37% and the “Average animal paw volume” value (Day 6, R paw) was 1.34 mL. For the same compound, the “Average animal paw volume percent change (%)” value (Day 6, R paw) was 1.50%, the “Animal paw volume percent change (%)” value (Day 6, R paw, 10 mg/kg) was −0.39% and 0.00% (4×) and the “Average overall clinical score” value (Day 6, CIA) was 0. For the same compound, the “clinical score left forelimb” value (Day 6, CIA) was 0, the “clinical score left hind limb” value (Day 6, CIA) was 0 and the “clinical score right forelimb” value (Day 6, CIA) was 0. For the same compound, the “clinical score right hind limb” value (Day 6, CIA) was 0, the “clinical score, score (all limbs)” value (Day 6, CIA) was 0 and the “Average animal paw volume” value (Day 12, L paw) was 1.36 mL. The “Animal paw volume percent change (%)” value (Day 12, L paw, 10 mg/kg) was 0.76% and 0.00% and 1.50%, the “Average animal paw volume” value (Day 12, R paw) was 1.37 mL and the “Average overall clinical score” value (Day 12, CIA) was 0. For the same compound, the “clinical score left forelimb” value (Day 12, CIA) was 0, the “clinical score left hind limb” value (Day 12, CIA) was 0 and the “clinical score right forelimb” value (Day 12, CIA) was 0. For the same compound, the “clinical score right hind limb” value (Day 12, CIA) was 0, the “clinical score, score (all limbs)” value (Day 12, CIA) was 0 and the “Average animal paw volume” value (Day 13, L paw) was 1.38 mL. The “Animal paw volume percent change (%)” value (Day 13, L paw, 10 mg/kg) was −0.73%, the “Average animal paw volume” value (Day 13, R paw) was 1.41 mL and the “Average detailed clinical score, right hind limb” value (Day 13, CIA) was 0.125. The “Average detailed clinical score, score” value (Day 13, CIA) was 0.125, the “Average overall clinical score” value (Day 13, CIA) was 0 and the “clinical score left forelimb” value (Day 13, CIA) was 0. For the same compound, the “clinical score left hind limb” value (Day 13, CIA) was 0, the “clinical score right forelimb” value (Day 13, CIA) was 0 and the “clinical score right hind limb” value (Day 13, CIA) was 0 (6×) and 1. The “clinical score, score (all limbs)” value (Day 13, CIA) was 0 (6×) and 1, the Animal paw volume (Day 13, L paw) was 1.40 mL and the Animal paw volume (Day 13, R paw) was 1.40 mL. For the same compound, the “Animal paw volume percent change (%)” value (Day 14, L paw, 10 mg/kg) was −0.37%, the “Animal paw volume percent change (%)” value (Day 14, R paw, 10 mg/kg) was 4.40% and the “Average detailed clinical score, left hind limb” value (Day 14, CIA) was 0.875. For the same compound, the “Average detailed clinical score, right hind limb” value (Day 14, CIA) was 1.125, the “Average overall clinical score” value (Day 14, CIA) was 2 and the “clinical score left forelimb” value (Day 14, CIA) was 0. For the same compound, the “clinical score left hind limb” value (Day 14, CIA) was 0 (4×) and 2 (2×) and 1, the “clinical score right forelimb” value (Day 14, CIA) was 0 and the “clinical score right hind limb” value (Day 14, CIA) was 0 (4×) and 2 (2×) and 3. For the same compound, the “clinical score, score (all limbs)” value (Day 14, CIA) was 0 (3×) and 4 and 3 (2×) and 2, the Animal paw volume (Day 14, L paw) was 1.40 mL and the “Average animal paw volume” value (Day 15, L paw) was 1.74 mL. For the same compound, the “Animal paw volume percent change (%)” value (Day 15, R paw, 10 mg/kg) was 59.00%, the “Average detailed clinical score, left hind limb” value (Day 15, CIA) was 1.625 and the “Average detailed clinical score, score” value (Day 15, CIA) was 3.625. For the same compound, the “Average overall clinical score” value (Day 15, CIA) was 4, the “clinical score left forelimb” value (Day 15, CIA) was 0 and the “clinical score left hind limb” value (Day 15, CIA) was 1 (2×) and 3 (3×) and 0 (2×). The “clinical score right forelimb” value (Day 15, CIA) was 0, the “clinical score right hind limb” value (Day 15, CIA) was 1 and 3 (3×) and 0 (2×) and 4 and the “clinical score, score (all limbs)” value (Day 15, CIA) was 2 and 6 (3×) and 0 and 4 and 1. For the same compound, the Animal paw volume (Day 15, L paw) was 1.60 mL, the “Average overall clinical score” value (Day 18, CIA) was 7 and the “Average animal paw volume” value (Day 19, L paw) was 2.54 mL. For the same compound, the “Animal paw volume percent change (%)” value (Day 19, L paw, 10 mg/kg) was 83.00% and 100.00%, the “Average overall clinical score” value (Day 19, CIA) was 8 and the Animal paw volume (Day 19, R paw) was 2.20 mL. The “Average overall clinical score” value (Day 21, CIA) was 8, the “clinical score left forelimb” value [1] was 0 and the “clinical score left hind limb” value [1] was 0. The “clinical score right forelimb” value [1] was 0, the “clinical score right hind limb” value [1] was 0 and the “clinical score, score (all limbs)” value [1] was 0. For the same compound, the “clinical score left forelimb” value [2] was 0, the “clinical score left hind limb” value [2] was 2 and the “clinical score right forelimb” value [2] was 0. The “clinical score right hind limb” value [2] was 2, the “clinical score, score (all limbs)” value [2] was 4 and the “clinical score left forelimb” value [3] was 0. The “clinical score left hind limb” value [3] was 2, the “clinical score right forelimb” value [3] was 0 and the “clinical score right hind limb” value [3] was 2. The “clinical score, score (all limbs)” value [3] was 4, the “clinical score left forelimb” value (group 4 CIA + GSK620, Day 18) was 0 and the “clinical score left hind limb” value (group 4 CIA + GSK620, Day 18) was 4 (7×) and 3. For the same compound, the “clinical score right forelimb” value (group 4 CIA + GSK620, Day 18) was 0, the “clinical score right hind limb” value (group 4 CIA + GSK620, Day 18) was 4 (6×) and 0 and 3 and the “clinical score, score (all limbs)” value (group 4 CIA + GSK620, Day 18) was 8 (6×) and 4 and 6. The “clinical score left forelimb” value (group 4 CIA + GSK620, Day 19) was 1 (6×) and 0 (2×), the “clinical score left hind limb” value (group 4 CIA + GSK620, Day 19) was 4 (5×) and 3 (3×) and the “clinical score right forelimb” value (group 4 CIA + GSK620, Day 19) was 0 (6×) and 1 (2×). The “clinical score right hind limb” value (group 4 CIA + GSK620, Day 19) was 4 (3×) and 3 (4×) and 0, the “clinical score, score (all limbs)” value (group 4 CIA + GSK620, Day 19) was 9 (2×) and 10 and 6 and 5 and 7 (2×) and 8 and the “clinical score left forelimb” value (group 4 CIA + GSK620, Day 20) was 1 (5×) and 2 and 0 (2×). The “clinical score left hind limb” value (group 4 CIA + GSK620, Day 20) was 4 (5×) and 3 (3×), the “clinical score right forelimb” value (group 4 CIA + GSK620, Day 20) was 0 (6×) and 1 (2×) and the “clinical score right hind limb” value (group 4 CIA + GSK620, Day 20) was 4 (3×) and 3 (4×) and 1. The “clinical score, score (all limbs)” value (group 4 CIA + GSK620, Day 20) was 9 (2×) and 11 and 6 (2×) and 7 (2×) and 8.
